Test results published in the NIST ThermoML archive (doi:10.1021/je030222n).
± gives the expanded uncertainty stated by the source.

Details: Liquid

CCOC(N)=O [ethyl carbamate]
Closed cell (Static) method
Details	vapor or sublimation pressure [kPa]
322.6 K	0.88 ± 0.2
337.2 K	1.287 ± 0.2
342.3 K	1.494 ± 0.2
352.5 K	1.957 ± 0.2
362.6 K	2.381 ± 0.2
371.7 K	2.953 ± 0.2

CCCCO [butan-1-ol]
Closed cell (Static) method
Details	vapor or sublimation pressure [kPa]
314.19 K	2.7 ± 0.41
323.2 K	4.49 ± 0.43
338.21 K	10.38 ± 0.45
342.17 K	12.89 ± 0.55
352.81 K	21.44 ± 0.63
361.24 K	31.52 ± 0.84
371.94 K	49.26 ± 0.92

CCCCCCCCC [nonane]
Closed cell (Static) method
Details	vapor or sublimation pressure [kPa]
322.59 K	2.34 ± 0.22
338.33 K	4.99 ± 0.23
351.53 K	9 ± 0.3
371.37 K	19.81 ± 0.34

CCCCN=C=O [butyl isocyanate]
Details	vapor or sublimation pressure [kPa]
294.15 K	2.48 ± 0.41
323.24 K	9.52 ± 0.74
338.02 K	17.88 ± 1.2
353.02 K	32.1 ± 1.9
362.65 K	44.82 ± 2.6
372.6 K	61.84 ± 3.5
387.87 K	99.08 ± 5.3
